Results taken from patent EP0478545B1, “1,2,4-BENZOTRIAZINE OXIDES AS RADIOSENSITIZERS AND SELECTIVE CYTOTOXIC AGENTS” (SRI INTERNATIONAL, priority 1989, dated 1991).
Values after ≈ are worked out from the molar mass of the structure shown. Counter-ions that a name gives are not always drawn.

Experiments:
[1] = Determination of LD50; conditions: mouse, in vivo; Balb/c female mice 3-5 months of age; ip (or iv) injection in physiological saline
Procedure: LD50 is determined in BALB/c female mice (weighing 20-25 g) following intraperitoneal (ip) injection, unless the compound tested has low lipophilicity and is very soluble, wherein intravenous (iv) administration is used. LD50 values at 1, 2, 5, and 60 days are determined by administering graded doses of the drug dissolved in physiological saline immediately prior to injection.

[2] = Solubility
[3] = Octanol-water partition coefficient (method of Fujita et al.); conditions: pH 7.4
[4] = physchem; conditions: pH 7.4
[5] = physchem

With `Nc1n[n+]([O-])c2cc([N+](=O)[O-])ccc2[n+]1[O-]` [Compound 14, 7-nitro-3-amino-1,2,4-benzotriazine 1,4-dioxide] the LD50 [1] was 1000 µmol/kg, the solubility [2] was 2 mM (≈ 446 µg/mL) and the logP ([3]; octanol/water) was -0.97.
`Nc1n[n+]([O-])c2ccccc2[n+]1[O-]` [Compound 22] showed an LD50 [1] of 500 µmol/kg, a logP [4] of -0.32 and a solubility [5] of 13.5 mM (≈ 2410 µg/mL).
With `CCN(CC)CCNc1n[n+]([O-])c2cc([N+](=O)[O-])ccc2[n+]1[O-]` [Compound 21, 7-nitro-3-(2-N,N-diethylaminoethylamino)-1,2,4-benzotriazine 1,4-dioxide hydrochloride] the logP [3] was -0.2.
